EP0349354A1, “Peptides PF10 to PF19 from a retro virus HIV, method for the synthesis of these peptides and their use, particularly in diagnostics” (INSTITUT PASTEUR, priority 1988, dated 1990)

Experiments:
[1] = system: anticorps anti-protéine F; experiment: Western blot test on peptide spots with sera of HIV-1 infected patients; type: binding, humain; conditions: serum 1545 diluted 1/200; spot 10µl of peptide at 2 mg/ml
Protocol: Pour les besoins du test, les différents peptides PF16, PF19, PF13, PF17 utilisés sont dilués à une concentration de 2 mg/ml.
Sur une bande de papier BIORAD pour transblot, on dépose différents spots : 1µl, 2µl, 5µl, 10µl.
Après séchage on pratique un test Western Blot classique en utilisant comme anticorps des sérums de patients infectés par le virus HIV-1, positifs pour la protéine F, à des dilutions variant de 1/100 à 1/300.
Les peptides testés permettent d'aboutir aux résultats résumés dans le tableau 2 avec trois sérums différents anti-F ++ (++ signifiant une réaction plus marquée).

anticorps anti-nef = experiment: ELISA for detection of anti-nef antibodies on coated peptides or nef; type: binding, humain

## XCYKLVPVEPDKVEEANKGENTSLLHPVSLHGMDDPEREVLEWRFDSRL AFHHVARELHPEYFKNCZ [PF17, protéine F HIV-1, séquence 141-205]
[1]
  réaction avec sérum 1545 1/200, 10µl: tr
Anticorps anti-nef; ELISA, out of 31 anti-nef positive sera
  nombre de sérums anti-nef positifs ayant réagi: 26
Anticorps anti-nef; Serum 1, anti-nef positive, 500 ng coated per well
  intensité de l'immunoréactivité (OD), Serum 1: +++ (pour OD = 0,8 à 2,0)
Anticorps anti-nef; Serum 2, anti-nef positive, 500 ng coated per well
  intensité de l'immunoréactivité (OD), Serum 2: +++ (pour OD = 0,8 à 2,0)
Anticorps anti-nef; Serum 3, anti-nef positive, 500 ng coated per well
  intensité de l'immunoréactivité (OD), Serum 3: + (pour OD = 0,2 à 0,4)
Anticorps anti-nef; Serum 4, anti-nef positive, 500 ng coated per well
  intensité de l'immunoréactivité (OD), Serum 4: +++ (pour OD = 0,8 à 2,0)
Anticorps anti-nef; Serum 5, anti-nef positive, 500 ng coated per well
  intensité de l'immunoréactivité (OD), Serum 5: +++ (pour OD = 0,8 à 2,0)
Anticorps anti-nef; Serum 6, anti-nef positive, 500 ng coated per well
  intensité de l'immunoréactivité (OD), Serum 6: +++ (pour OD = 0,8 à 2,0)
Anticorps anti-nef; Serum 7, anti-nef positive, 500 ng coated per well
  intensité de l'immunoréactivité (OD), Serum 7: - (pour une densité optique (OD) inférieure à 0,2)
Anticorps anti-nef; Serum 8, anti-nef positive, 500 ng coated per well
  intensité de l'immunoréactivité (OD), Serum 8: - (pour une densité optique (OD) inférieure à 0,2)
Anticorps anti-nef; Serum 9, anti-nef positive, 500 ng coated per well
  intensité de l'immunoréactivité (OD), Serum 9: - (pour une densité optique (OD) inférieure à 0,2)
Anticorps anti-nef; Serum 10, anti-nef positive, 500 ng coated per well
  intensité de l'immunoréactivité (OD), Serum 10: ++ (pour OD = 0,4 à 0,8)
Anticorps anti-nef; Serum 11, anti-nef positive, 500 ng coated per well
  intensité de l'immunoréactivité (OD), Serum 11: + (pour OD = 0,2 à 0,4)
Anticorps anti-nef; Serum 12, anti-nef positive, 500 ng coated per well
  intensité de l'immunoréactivité (OD), Serum 12: - (pour une densité optique (OD) inférieure à 0,2)
Anticorps anti-nef; Serum 13, anti-nef positive, 500 ng coated per well
  intensité de l'immunoréactivité (OD), Serum 13: ++ (pour OD = 0,4 à 0,8)
Anticorps anti-nef; Serum 14, anti-nef positive, 500 ng coated per well
  intensité de l'immunoréactivité (OD), Serum 14: - (pour une densité optique (OD) inférieure à 0,2)
Anticorps anti-nef; Serum 15, anti-nef positive, 500 ng coated per well
  intensité de l'immunoréactivité (OD), Serum 15: +++ (pour OD = 0,8 à 2,0)
Anticorps anti-nef; Serum 16, anti-nef positive, 500 ng coated per well
  intensité de l'immunoréactivité (OD), Serum 16: ++ (pour OD = 0,4 à 0,8)
Anticorps anti-nef; Serum 17, anti-nef positive, 500 ng coated per well
  intensité de l'immunoréactivité (OD), Serum 17: ++ (pour OD = 0,4 à 0,8)
Anticorps anti-nef; Serum 18, anti-nef positive, 500 ng coated per well
  intensité de l'immunoréactivité (OD), Serum 18: +++ (pour OD = 0,8 à 2,0)
Anticorps anti-nef; Serum 19, anti-nef positive, 500 ng coated per well
  intensité de l'immunoréactivité (OD), Serum 19: +++ (pour OD = 0,8 à 2,0)
Anticorps anti-nef; Serum 20, anti-nef positive, 500 ng coated per well
  intensité de l'immunoréactivité (OD), Serum 20: ++ (pour OD = 0,4 à 0,8)
Anticorps anti-nef; Serum 21, anti-nef positive, 500 ng coated per well
  intensité de l'immunoréactivité (OD), Serum 21: +++ (pour OD = 0,8 à 2,0)
Anticorps anti-nef; Serum 22, anti-nef positive, 500 ng coated per well
  intensité de l'immunoréactivité (OD), Serum 22: +++ (pour OD = 0,8 à 2,0)
Anticorps anti-nef; Serum 23, anti-nef positive, 500 ng coated per well
  intensité de l'immunoréactivité (OD), Serum 23: ++ (pour OD = 0,4 à 0,8)
Anticorps anti-nef; Serum 24, anti-nef positive, 500 ng coated per well
  intensité de l'immunoréactivité (OD), Serum 24: +++ (pour OD = 0,8 à 2,0)
Anticorps anti-nef; Serum 25, anti-nef positive, 500 ng coated per well
  intensité de l'immunoréactivité (OD), Serum 25: +++ (pour OD = 0,8 à 2,0)
Anticorps anti-nef; Serum 26, anti-nef positive, 500 ng coated per well
  intensité de l'immunoréactivité (OD), Serum 26: ++ (pour OD = 0,4 à 0,8)
Anticorps anti-nef; Serum 27, anti-nef positive, 500 ng coated per well
  intensité de l'immunoréactivité (OD), Serum 27: + (pour OD = 0,2 à 0,4)
Anticorps anti-nef; Serum 28, anti-nef positive, 500 ng coated per well
  intensité de l'immunoréactivité (OD), Serum 28: ++ (pour OD = 0,4 à 0,8)
Anticorps anti-nef; Serum 29, anti-nef positive, 500 ng coated per well
  intensité de l'immunoréactivité (OD), Serum 29: ++ (pour OD = 0,4 à 0,8)
Anticorps anti-nef; Serum 30, anti-nef positive, 500 ng coated per well
  intensité de l'immunoréactivité (OD), Serum 30: +++ (pour OD = 0,8 à 2,0)
Anticorps anti-nef; Serum 31, anti-nef positive, 500 ng coated per well
  intensité de l'immunoréactivité (OD), Serum 31: ++ (pour OD = 0,4 à 0,8)
Anticorps anti-nef; Serum 32, anti-nef negative control serum, 500 ng coated per well
  intensité de l'immunoréactivité (OD), Serum 32: - (pour une densité optique (OD) inférieure à 0,2)
Anticorps anti-nef; Serum 33, anti-nef negative control serum, 500 ng coated per well
  intensité de l'immunoréactivité (OD), Serum 33: - (pour une densité optique (OD) inférieure à 0,2)
